Results on one molecule are retold here after US4159373A, “7-Acyl-3-(sulfonic acid and sulfamoyl substituted tetrazolyl thiomethyl) cephalosporins” (SmithKline Corporation, priority 1978, dated 1979).

For assay [1], the system named is E. coli SK 12140. Description: MIC in vitro. It is filed as cell-based. Conditions: Escherichia coli, SK12140; Example 55 table; E. coli SK&F 12140; read-out: MIC. As for the experimental part:
(§1) The compounds of Formula I have exceptional antibacterial activity against both Gram-positive and Gram-negative organisms. Minimum inhibitory concentrations (MIC's) ranged from 0.2 to <200 μg./ml. in in vitro testing.

Assay [2] concerns Proteus morgani 179. Description: MIC in vitro. It is filed as cell-based. Conditions: Example 55 table, read-out: MIC. The protocol:
as §1

Assay [3] has as its system S. aureus HH 127. The assay can be described thus: MIC in vitro. It is filed as cell-based. The note with it: Staphylococcus aureus; Example 55 table; Staph. aureus HH127; read-out: MIC. The protocol:
as §1

Assay [4] concerns Strep. Faecalis HH 34358. Description: MIC in vitro. It is filed as cell-based. Conditions: Enterococcus faecalis, Example 55 table; Strep. faecalis HH 34358; read-out: MIC. The protocol:
as §1

In assay [5] the test system is Kleb. pneumo. SK 1200. Description: MIC in vitro. Conditions: Klebsiella pneumoniae, Example 55 table; Kleb. pneumoniae SK&F 1200; read-out: MIC. The assay is classed as cell-based, Kleb. pneumoniae. The protocol:
as §1

For assay [6], the system named is Kleb. pneumo. SK 4200. The assay can be described thus: MIC in vitro. The assay is classed as cell-based, Kleb. pneumoniae. Conditions: Klebsiella pneumoniae, Example 55 table; Kleb. pneumoniae SK&F 4200; read-out: MIC. The protocol:
as §1

Assay [7] has as its system Psuedo. sp. HH 63. Description: MIC in vitro. It is filed as cell-based, Pseudo. aeruginosa. Conditions: Pseudomonas aeruginosa; Example 55 table; Pseudo. aeruginosa HH63; read-out: MIC. As for the experimental part: as §1
Assay [8] has as its system Entero. aerog. ATCC 13048. The assay can be described thus: MIC in vitro. It is filed as cell-based, Enterobacter aerogenes. Conditions: Klebsiella aerogenes, ATCC13048, Example 55 table; Enterobacter aerogenes 13048; read-out: MIC. As for the experimental part:
as §1

Assay [9] has as its system Serra. marc ATCC 13880. Description: MIC in vitro. It is filed as cell-based, Serratia marcescens. Conditions: Serratia marcescens, ATCC13880, Example 55 table; Serratia marcescens ATCC 13880; read-out: MIC. As for the experimental part:
as §1

Assay [10] has as its system Staph. aureus 671. Description: MIC in vitro. The assay is classed as cell-based. Conditions: Staphylococcus aureus, Example 55 table.
Assay [11] concerns Staph. aureus 674. The assay can be described thus: MIC in vitro. It is filed as cell-based. The note with it: Staphylococcus aureus, 674, Example 55 table.
Assay [12] has as its system E. coli 804. Description: MIC in vitro. The assay is classed as cell-based. Conditions: Escherichia coli, Example 55 table, read-out: MIC.
In assay [13] the test system is Kleb. pneumoniae 982. The assay can be described thus: MIC in vitro. Conditions: Klebsiella pneumoniae, Example 55 table, read-out: MIC. It is filed as cell-based.
Assay [14] deals with Pseudo. aeruginosa 647. The assay can be described thus: MIC in vitro. The assay is classed as cell-based. The note with it: Pseudomonas aeruginosa, Example 55 table, read-out: MIC.
The subject of assay [15] is Proteus mirabilis 444. The assay can be described thus: MIC in vitro. The assay is classed as cell-based. The note with it: Example 55 table, read-out: MIC.
In assay [16] the test system is Enterobacter cloacae 921. The assay can be described thus: MIC in vitro. The assay is classed as cell-based. Conditions: Enterobacter cloacae, 921, Example 55 table.
Assay [17] deals with E. coli 12140. The assay can be described thus: In vivo mouse protection, E. coli 12140. Conditions: Escherichia coli, 12140, sc, Example 55; s.c.; E. coli SKF 12140; read-out: ED50.
In assay [18] the test system is Kleb. pneumo. 4200. The assay can be described thus: In vivo mouse protection, Kleb. pneumo. 4200. Conditions: sc, Example 55, s.c., K. pneumo. SK&F 4200, read-out: ED50.

Values after ≈ are worked out from the molar mass of the structure shown.

What is called MIC is the lowest concentration found to suppress growth. The term ED50 denotes the midpoint of the dose-response relation. With `NCc1cccc(CC(=O)NC2C(=O)N3C(C(=O)O)=C(CSc4nnnn4CS(=O)(=O)O)CSC23)c1` (stereo not drawn) [Example 55, 7-(3-Aminomethylphenylacetamido)-3-(1-sulfomethyltetrazol-5-ylthiomethyl)-3-cephem-4-carboxylic acid], the MIC was 1.6 µg/mL (≈ 2.88 µM) in [1]; over 100 µg/mL in [2]; 1.6 µg/mL (≈ 2.88 µM) in [3]; 100 µg/mL (≈ 180 µM) in [4]; at most 0.1 µg/mL in assay [5]; 0.2 µg/mL (≈ 0.36 µM) in assay [6]. For the same molecule, the MIC in [7] is over 100 µg/mL; in assay [8] it was 50 µg/mL (≈ 90 µM); in assay [9] it was over 100 µg/mL; in [10], 6.3 µg/mL (≈ 11.3 µM); in assay [11] it was 1.6 µg/mL (≈ 2.88 µM); in assay [12] it was over 100 µg/mL. For the same molecule, the MIC in [13] is over 100 µg/mL; in assay [14], over 100 µg/mL; in assay [15] it was 0.4 µg/mL (≈ 0.72 µM); in assay [16] it was 25 µg/mL (≈ 45 µM). Moreover, the ED50 is 1.82 mg/kg in assay [17] and under 0.19 mg/kg in assay [18].
